Assay results reported in ChEMBL document CHEMBL1146486, “Biologically active compounds from Aphyllophorales (polypore) fungi” (J Nat Prod, 2004).
Converted amounts (≈) assume the structure as drawn.

Assays:
Bacillus cereus = assay: Antimicrobial activity against Bacillus cereus; format: functional
Aspergillus niger = assay: Antimicrobial activity against Aspergillus niger; format: functional
Aspergillus flavus = assay: Antimicrobial activity against Aspergillus flavus; format: functional
Amylomyces rouxii = assay: Antimicrobial activity against Mucor rouxii; format: functional
L929 = assay: Cytotoxicity against mouse L929 cells; format: cell-based
[1] = Inhibition of DNA synthesis in human ECA cells assessed as blockade of thymidine incorporation; format: functional, cell-based
[2] = Toxicity in mouse at 225 mg/kg; format: organism-based; set-up: dose 225 mg/kg; conditions: in vivo
[3] = Inhibition of pig brain phospholipase; set-up: species or system Sus scrofa
L1210 = assay: Cytotoxicity against mouse L1210 cells; format: functional, cell-based
[4] = Inhibition of almond beta-glucosidase; set-up: species or system Prunus dulcis
Arthrobacter citreus = assay: Antimicrobial activity against Arthrobacter citreus; format: functional
Bacillus subtilis = assay: Antimicrobial activity against Bacillus subtilis; format: functional
[5] = system: Clavibacter michiganensis subsp. insidiosus; assay: Antimicrobial activity against Corynebacterium insidiosum; format: functional
Kocuria rosea = assay: Antimicrobial activity against Micrococcus roseus; format: functional
Micrococcus luteus = assay: Antimicrobial activity against Sarcina lutea; format: functional
Leuconostoc = assay: Antimicrobial activity against Leuconostoc plantarum; format: functional
[6] = Inhibition of lipid peroxidation; format: functional
HL-60 = assay: Cytotoxicity against human HL60 cells
Alternaria = assay: Antimicrobial activity against Alternaria; format: functional
HeLa = assay: Cytotoxicity against human HeLa cells; format: functional, cell-based
MDCK = assay: Cytotoxicity against MDCK cells; format: cell-based; conditions: Canis lupus familiaris
[7] = Cytotoxicity against human FL cells; format: functional, cell-based
[8] = Cytotoxicity against human KATO III cells; format: functional, cell-based, KATO III cell
[9] = molecular target: Transient receptor potential cation channel subfamily V member 1 (Homo sapiens, UniProt Q8NER1); assay: Inhibition of Vanilloid receptor 1
[10] = Inhibition of NF-kappaB by secreted alkaline phosphatase based reporter gene assay
Liver microsomes = assay: Antioxidant activity in rat liver microsomes assessed as inhibition of lipid peroxidation; format: functional, Microsome
Staphylococcus aureus = assay: Antimicrobial activity against Staphylococcus aureus; format: functional
Micrococcus = assay: Antimicrobial activity against Micrococcus flavus; format: functional
Bacillus anthracis = assay: Antimicrobial activity against Bacillus anthracis; format: functional
[11] = Cytotoxicity against mouse Meth-A cells; format: functional; conditions: read-out: ED50 (the source's name)
CCRF S-180 = assay: Cytotoxicity against mouse S180 cells; format: functional; conditions: read-out: ED50 (the source's name)
T47D = assay: Cytotoxicity against human T47D cells; format: functional; conditions: read-out: ED50 (the source's name)
[12] = Cytotoxicity against mouse LLC cells; format: functional; conditions: Lewis lung carcinoma, read-out: ED50 (the source's name)
Protease = Protease (Human immunodeficiency virus 1, UniProt Q9YQ12); assay: Inhibition of HIV1 protease
[13] = Antiplatelet activity assessed as inhibition of ADP-stimulated bovine platelet aggregation; format: functional; conditions: Bos taurus
[14] = Antiplatelet activity assessed as inhibition of ADP-stimulated human platelet aggregation; format: functional

Sequence of Protease (Q9YQ12 whole entry): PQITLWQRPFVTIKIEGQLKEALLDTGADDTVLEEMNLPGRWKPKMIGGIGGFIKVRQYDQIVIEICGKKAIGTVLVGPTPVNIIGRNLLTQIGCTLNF
Sequence of Transient receptor potential cation channel subfamily V member 1 (Q8NER1 whole entry): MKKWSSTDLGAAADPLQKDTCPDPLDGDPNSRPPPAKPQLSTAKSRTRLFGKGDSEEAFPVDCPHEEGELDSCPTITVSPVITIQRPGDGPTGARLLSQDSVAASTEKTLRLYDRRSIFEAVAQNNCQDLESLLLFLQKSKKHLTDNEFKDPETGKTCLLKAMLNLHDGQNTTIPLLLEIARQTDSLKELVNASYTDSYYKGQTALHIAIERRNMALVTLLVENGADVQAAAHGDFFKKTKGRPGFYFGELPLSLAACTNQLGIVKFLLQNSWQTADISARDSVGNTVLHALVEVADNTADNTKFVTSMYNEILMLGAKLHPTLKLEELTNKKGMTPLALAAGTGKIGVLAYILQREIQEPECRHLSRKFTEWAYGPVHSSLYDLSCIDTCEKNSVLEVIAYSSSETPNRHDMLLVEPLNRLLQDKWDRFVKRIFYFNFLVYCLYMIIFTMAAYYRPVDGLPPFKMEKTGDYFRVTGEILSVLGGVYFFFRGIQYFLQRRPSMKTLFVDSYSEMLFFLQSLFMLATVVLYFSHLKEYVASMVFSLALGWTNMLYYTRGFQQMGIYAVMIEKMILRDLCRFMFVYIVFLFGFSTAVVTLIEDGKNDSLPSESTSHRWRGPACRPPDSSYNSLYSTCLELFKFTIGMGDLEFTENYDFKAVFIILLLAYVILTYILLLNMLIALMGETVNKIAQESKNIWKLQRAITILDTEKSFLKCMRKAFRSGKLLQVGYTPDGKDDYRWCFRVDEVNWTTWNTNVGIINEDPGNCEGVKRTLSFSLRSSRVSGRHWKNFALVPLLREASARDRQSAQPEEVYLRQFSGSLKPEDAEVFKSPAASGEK

Work on `C=C1C(=O)[C@H]2O[C@]23C[C@H]2CC(C)(C)C[C@H]2[C@]13C` [DESOXYHYPNOPHILIN] yielded an MIC (Bacillus cereus) of 1 µg/mL (≈ 4.3 µM), an MIC (Aspergillus niger) of 1 µg/mL (≈ 4.3 µM) and an MIC (Aspergillus flavus) of 1 µg/mL (≈ 4.3 µM). It also gave an MIC (Amylomyces rouxii) of 1 µg/mL (≈ 4.3 µM) and an IC50 (L929) of 2.4 µg/mL (≈ 10.3 µM).
Compound `C=C1C(=O)[C@H](OC(C)=O)/C=C(\C)C(=O)[C@H](O)[C@@H]2[C@@H]1CC2(C)C` [NAEMATOLON] has an IC50 [1] of 2 µg/mL (≈ 6.53 µM) and an LD50 [2] of 225 mg/kg.
`CC(=O)O[C@@H]1[C@H](O[C@H](CO)[C@H](O)[C@@H](O)[C@@H](OC(C)=O)C(=O)O[C@H](C)CCCCCCCCCCCCCCCc2cccc(O)c2C(=O)O)O[C@H](CO)[C@@H](O)[C@@H]1O` [CALOPOROSIDE] showed a Ki [3] of 10 µg/mL (≈ 12.2 µM).
Work on `CC(C)[C@@H](C)[C@@H]1O[C@H]1[C@@H](C)[C@H]1CC[C@@]2(O)C3=CC(=O)[C@@H]4C[C@@H](O)[C@@H](O)C[C@]4(C)[C@H]3CC[C@]12C` [POLYPORUSTERONE E] yielded an IC50 (L1210) of 10 µg/mL (≈ 21.7 µM).
In the case of `OC[C@@H]1[C@@H](O)[C@H](O)[C@@H](O)[C@@H]2O[C@H]12` [CYCLOPHELLITOL], the IC50 [4] is reported as 0.8 µg/mL (≈ 4.54 µM).
`CCCCCCCC/C=C\CCCCCCCc1cccc(O)c1C(=O)O` [MERULINIC ACID C] gave an MIC (Arthrobacter citreus) of 0.4 µg/mL (≈ 1.07 µM), an MIC (Bacillus subtilis) of 0.4 µg/mL (≈ 1.07 µM) and an MIC [5] of 0.4 µg/mL (≈ 1.07 µM). For the same compound, the MIC (Kocuria rosea) was 0.4 µg/mL (≈ 1.07 µM) and the MIC (Micrococcus luteus) was 0.4 µg/mL (≈ 1.07 µM).
For `Nc1c(C(=O)O)c2nc3c(CO)cccc3oc-2cc1=O` [CINNABARIN], the MIC (Bacillus cereus) was 62.5 µg/mL (≈ 218 µM) and the MIC (Leuconostoc) was 62.5 µg/mL (≈ 218 µM).
Compound `COC1=C(c2ccccc2)C(=O)C2=C(C1=O)c1ccccc1CO2` [BETULINAN B] has an IC50 [6] of 2.88 µg/mL (≈ 9.05 µM).
`CC(C)C(C)C[C@@H](O)[C@](C)(O)[C@H]1CC[C@@]2(O)C3=CC(=O)[C@@H]4C[C@@H](O)[C@@H](O)C[C@]4(C)[C@H]3CC[C@]12C` (stereo partly specified) [POLYPORUSTERONE A] gave an IC50 (L1210) of 10 µg/mL (≈ 20.9 µM).
`C=C(C)[C@@H]1CCC2=C(CC[C@]3(C)[C@@H]([C@@H](CCC=C(C)C)C(=O)O)[C@H](O)C[C@@]23C)[C@@]1(C)CCC(=O)O` [PORICOIC ACID G] gave a GI50 (HL-60) of 39.3 nM.
`Cc1oc(=O)c2c(O)cccc2c1C` [OOSPOLACTONE] showed an MIC (Alternaria) of 12.5 µg/mL (≈ 65.7 µM).
For `CC(C)C(C)C1O[C@H]1[C@](C)(O)[C@H]1CC[C@@]2(O)C3=CC(=O)[C@@H]4C[C@@H](O)[C@@H](O)C[C@]4(C)[C@H]3CC[C@]12C` (stereo partly specified) [POLYPORUSTERONE C], the IC50 (L1210) was 10 µg/mL (≈ 21 µM).
Work on `CCCCCCCC/C=C\CCCCCCCc1cc(O)cc(O)c1C(=O)O` [MERULINIC ACID A] yielded an MIC (Arthrobacter citreus) of 0.4 µg/mL (≈ 1.02 µM), an MIC (Bacillus subtilis) of 0.4 µg/mL (≈ 1.02 µM) and an MIC [5] of 0.4 µg/mL (≈ 1.02 µM). The MIC (Kocuria rosea) was 0.4 µg/mL (≈ 1.02 µM) and the MIC (Micrococcus luteus) was 0.4 µg/mL (≈ 1.02 µM).
Compound `O=Cc1ccc(O)c(O)c1C=O` [FOMECIN B] has an IC50 (HeLa) of 20 µg/mL (≈ 120 µM), an IC50 (MDCK) of 14 µg/mL (≈ 84.3 µM) and an IC50 [7] of 17 µg/mL (≈ 102 µM).
Work on `OCCCc1ccc2oc(-c3ccc4c(c3)OCO4)cc2c1` [DEMETHOXYEGONOL] yielded an IC50 [8] of 27.5 µg/mL (≈ 92.8 µM).
In the case of `CC(O)CCCCCC/C=C\CCCCCCCc1cccc(O)c1C(=O)O` (stereo unspecified) [MERULINIC ACID B], the MIC (Arthrobacter citreus) is reported as 0.4 µg/mL (≈ 1.02 µM), the MIC (Bacillus subtilis) is reported as 0.4 µg/mL (≈ 1.02 µM) and the MIC [5] is reported as 0.4 µg/mL (≈ 1.02 µM). For the same compound, the MIC (Kocuria rosea) was 0.4 µg/mL (≈ 1.02 µM) and the MIC (Micrococcus luteus) was 0.4 µg/mL (≈ 1.02 µM).
`COC1=C(c2ccccc2)C(=O)C(OC)=C(c2ccccc2)C1=O` [BETULINAN A] gave an IC50 [6] of 0.46 µg/mL (≈ 1.44 µM).
`Cc1cc(O)c(C[C@@H]2[C@@]3(C)CCCC(C)(C)[C@@H]3CC[C@@]2(C)O)c(O)c1` [ALBACONOL] showed an IC50 [9] of 5 µM.
`C=C1[C@@H](O)[C@H]2O[C@]23C[C@H]2CC(C)(C)[C@H](O)[C@H]2[C@]13C` [HYPNOPHILIN 1] showed an IC50 (L929) of 0.9 µg/mL (≈ 3.6 µM).
In the case of `COc1cc(CCCO[C@@H]2O[C@H](CO)[C@@H](O)[C@H](O)[C@H]2O)cc2cc(-c3ccc4c(c3)OCO4)oc12` [EGONOL GLUCOSIDE], the IC50 [8] is reported as 24.9 µg/mL (≈ 51 µM).
`CC(C)=C[C@H](O)C1=C[C@@H](O)[C@@H]2O[C@@H]2C1=O` [PANEPOXYDONE] gave an IC50 [10] of 1.5 µg/mL (≈ 7.14 µM).
In the case of `CC(C)[C@@H](C)C[C@@H](O)[C@@H](C)[C@H]1CC[C@@]2(O)C3=CC(=O)[C@@H]4C[C@@H](O)[C@@H](O)C[C@]4(C)[C@H]3CC[C@]12C` [POLYPORUSTERONE F], the IC50 (L1210) is reported as 10 µg/mL (≈ 21.6 µM).
For `CC1(C)C=Cc2ccc(O[C@@H]3O[C@H](CO)[C@@H](O)[C@H]3O)cc2O1` [STERIN A], the IC50 (Liver microsomes) was 8 µg/mL (≈ 25.9 µM).
`C=C1C(=O)[C@H]2O[C@]23C[C@H]2CC(C)(C)[C@H](O)[C@H]2[C@]13C` [HYPNOPHILIN] showed an MIC (Bacillus cereus) of 1 µg/mL (≈ 4.03 µM), an MIC (Aspergillus niger) of 1 µg/mL (≈ 4.03 µM) and an MIC (Aspergillus flavus) of 1 µg/mL (≈ 4.03 µM). It also gave an MIC (Amylomyces rouxii) of 1 µg/mL (≈ 4.03 µM).
For `CC1(C)C[C@H]2[C@@H]([C@H]1O)[C@@]1(C)[C@@]3(O[C@@H]3C(=O)[C@@]13CO3)[C@H]2O` [CORIOLIN], the MIC (Staphylococcus aureus) was 12.5 µg/mL (≈ 44.6 µM), the MIC (Micrococcus) was 12.5 µg/mL (≈ 44.6 µM) and the MIC (Bacillus anthracis) was 12.5 µg/mL (≈ 44.6 µM).
In the case of `COc1cc(CCCO)cc2cc(-c3ccc4c(c3)OCO4)oc12` [EGONOL], the IC50 [8] is reported as 28.8 µg/mL (≈ 88.2 µM).
Work on `C=C(CC[C@@H](C)[C@H]1CC[C@@]2(C)C3=C(CC[C@]12C)[C@@]1(C)CC[C@H](O)C(C)(C)C1CC3=O)C(C)C=O` (stereo partly specified) [LUCIALDEHYDE C] yielded an EC50 [11] of 3.8 µg/mL (≈ 8.11 µM), an EC50 (CCRF S-180) of 7.1 µg/mL (≈ 15.1 µM) and an EC50 (T47D) of 4.7 µg/mL (≈ 10 µM). It also gave an EC50 [12] of 10.7 µg/mL (≈ 22.8 µM).
With `C/C(=C\CC[C@@H](C)[C@H]1CC(=O)[C@@]2(C)C3=C(C(=O)C[C@]12C)[C@@]1(C)CC[C@H](O)C(C)(C)[C@@H]1C[C@@H]3O)C(=O)O` [GANODERIC ACID BETA] the IC50 (Protease) was 20 µM.
For `C=C(C[C@@H](O)[C@](C)(O)[C@H]1CC[C@@]2(O)C3=CC(=O)[C@@H]4C[C@@H](O)[C@@H](O)C[C@]4(C)[C@H]3CC[C@]12C)C(C)C` [POLYPORUSTERONE B], the IC50 (L1210) was 10 µg/mL (≈ 21 µM).
`CC1(C)CCC(=O)[C@@H]2[C@@H](C=O)C(C=O)=CC[C@@H]21` [PANUDIAL] gave an IC30 [13] of 2.5 µg/mL (≈ 10.7 µM) and an IC30 [14] of 6 µg/mL (≈ 25.6 µM).
Work on `C=C(C[C@@H](O)[C@@H](C)[C@H]1CC[C@@]2(O)C3=CC(=O)[C@@H]4C[C@@H](O)[C@@H](O)C[C@]4(C)[C@H]3CC[C@]12C)C(C)C` [POLYPORUSTERONE G] yielded an IC50 (L1210) of 10 µg/mL (≈ 21.7 µM).
Compound `C=C([C@H](O)C[C@H](C)C(C)C)[C@H]1CC[C@@]2(O)C3=CC(=O)[C@@H]4C[C@@H](O)[C@@H](O)C[C@]4(C)[C@H]3CC[C@]12C` [POLYPORUSTERONE D] has an IC50 (L1210) of 10 µg/mL (≈ 21.7 µM).
